Data set [1] relates to delayed hypersensitivity induced by picryl chloride. In words: Test of Reinforcement of Delayed Hypersensitivity (picryl chloride, mouse ear thickness). The format is in vivo, ICR male mice. To be noted: 50 mg/Kg oral, simultaneously with sensitization; 24 hours after challenge; * P<0.05, ** P<0.01. The text has this: Various test systems using animals have been proposed for determining the immunopotentiative action. Results of the test of reinforcement of the delayed hypersensitivity, which is a typical test among these tests, will now be described.
This system was used for the test of reinforcement of the delayed hypersensitivity.
One group of eight ICR male mice, each having a body weight of about 30 g, was used for the test.
Sensitization was effected by coating a 7% solution of picryl chloride in a 4/1 mixture of olive oil and acetone on the shaved abdomen of the mouse.
Simultaneously with sensitization, a solution or suspension of the compound of the present invention in a 0.2% solution of carboxymethyl cellulose in a physiological saline was orally administered to the mouse at a dose of 50 mg per Kg of the body weight. To the control group, a 0.2% carboxymethyl cellulose solution in a physiological saline was similarly administered.
The delayed hypersensitivity was challenged 7 days after sensitization by gripping the ear of the mouse by a forceps wrapped with a felt impregnated with a 1% solution of picryl chloride in olive oil and coating the ear with the solution. The thickness of the ear was measured before challenging and 24 hours after challenging and the ratio of increase of the thickness (average value of both the ears in eight mice±standard deviation) was obtained as shown in Table 1.
For comparison, the test was similarly carried out by using Levamisole hydrochloride, and the obtained results are shown in Table 1. F.t tests were carried out. The group in which the test result was significant at a level of P<0.05 was marked by *, and the group in which the test result was significant at a level of P<0.01 was marked by **.

Data set [2] relates to adjuvant arthritis caused by Mycobacterium tuberculosis adjuvant. Put plainly: Adjuvant Arthritis Test. The data set is classed as in vivo, SD male rats. The following applies: 5 mg/Kg subcutaneous, 9 times, left hind leg, * P<0.05, ** P<0.01. As for the experimental part: The adjuvant arthritis in rats caused by injection of a Mycobacterium tuberculosis adjuvant is often utilized for a model test of chronic rheumatoid arthritis in men.
The mechanism of manifestation of this disease has not completely been elucidated, but it is known that the cellular immunity takes an important role. The immunopotentiative action of the compound of the present invention was tested according to this known adjuvant arthritis test.
A group of ten 9-weeks-old SD male rats were used for the test. In 0.1 ml of fluid paraffin, 0.4 mg of dry dead cells of Mycobacterium tuberculosis were suspended, and the suspension was injected under the heel skin of the right hind leg. The compound of the present invention was subcutaneously administered 9 times as a whole before and after injection of the adjuvant. The test compound was dissolved in a physiological saline and administered at a dose of 5 mg per Kg of the body weight. The swelling volume of the left hind leg as measured during the period of from the day of injection to the day of completion of the test, and the swelling ratio was calculated. For comparison, the test was similarly conducted by using Levamisole hydrochloride. F.t tests were carried out on the obtained test results. The group in which the test result was significant at a level of P<0.05 was marked by *, and the group in which the test result was significant at a level of P<0.01 was marked by **.

For data set [3], the system named is EL-4 leukemic cells. Put plainly: In-Vitro Test of Inhibition of Growth of Cancer Cell by Macrophage (3H-thymidine take-in). The format is cell-based, C57 BL/6J mouse (EL-4 cells); ddY female mice (macrophages). The following applies: 8 mg/Kg intraperitoneal; for Take-in Ratio (average value, %): macrophages collected after 4 days, 3H-thymidine incorporated into EL-4 cells; for inhibition of take-in of 3H-thymidine by EL-4 cells / macrophage activation (in words): hydrochloride. The method, then: The results of the test of the action of the effective ingredient of the present invention on the macrophage will now be described with reference to the following Test 3. More specifically, the separated macrophage and EL-4 leukemic cell were mixed and cultured, and ^3 H-thymidine was added to a culture medium and the quantity of ^3 H-thymidine incorporated into the EL-4 cell was determined to examine the activity of the macrophage. When the macrophage is activated by administration of the effective ingredient of the present invention, inhibition of the growth of EL-4 cell, that is, phagocytosis of the cancer cell by the macrophage, is observed. Accordingly, if the take-in amount of ^3 H-thymidine is measured and this amount is reduced, it is confirmed that the macrophage has been activated. Test Procedures: […] The dose was 8 mg per Kg of the body weight. To the control group, a physiological saline was similarly administered. After passage of 4 days, exuded abdominal cells were collected and deposited on a plastic Petri dish to collect macrophages. […] Then, 0.1 μCi of ^3 H-thymidine was added and culturing was further conducted for 16 hours. Cells were collected on a filter paper from the culture medium and the amount of ^3 H-thymidine incorporated in was determined by a liquid scintillation counter.

The subject of data set [4] is Sarcoma 180. In words: Test of Antitumor Effect to Sarcoma 180 by Oral Administration. The data set is classed as in vivo, ICR female mice. The method, then:
To the control group, a physiological saline was similarly administered. The dose of the compound was 100 mg per Kg of the body weight. The diameter D (mm) of the tumor was measured, and the average value and the number N of the living mice were determined to obtain results shown in Table 4.

Data set [5] has as its system Sarcoma 180. Put plainly: Test of Antitumor Effect to Sarcoma 180 by Subcutaneous Administration. The data set is classed as in vivo, ICR female mice. To be noted: 20 mg/Kg subcutaneous. The method, then: To the control group, a physiological saline was similarly administered. […] The diameter D (mm) of the tumor was measured, and the average value and the number N of the living mice were determined to obtain results shown in Table 4.

Data set [6] can be described thus: Test of Acute Toxicity by Oral Administration. The format is in vivo, ddY male mice. The following applies: mice, after 7 days. As for the experimental part: A solution or suspension of the compound in a physiological saline was orally administered to one group of three ddY male mice, and after 7 days, the estimated LD50 value was determined.

Where a name gives a salt, the structure may show the parent alone.

As to `c1ccc([C@H]2CN3CCSC3=N2)cc1` [Levamisole hydrochloride, reference compound], the “Ratio of Increase of Ear Thickness (average value ± standard variation, %)” value in data set [1] is 33.9 ± 3.0%. Further, in data set [2] (15 days), the “Swelling Ratio (average value ± standard variation, %), 15 days” value is on record as 54.6 ± 11.3%. In addition, the “Swelling Ratio (average value ± standard variation, %), 18 days” value in data set [2] (18 days) came out at 61.7 ± 9.8%. The “Swelling Ratio (average value ± standard variation, %), 21 days” value in data set [2] (21 days) is given as 73.3 ± 14.6%. Besides, the “Take-in Ratio (average value, %)” value in data set [3] turned out to be 53.3%. In addition, the “inhibition of take-in of 3H-thymidine by EL-4 cells / macrophage activation (in words)” value in data set [3] is on record as “does not exhibit such action”; in data set [3] (listed as Levamisole), “hardly exhibits such action”. Also, the “D: average diameter (mm) of tumor, 2 weeks” value in data set [4] (100 mg/Kg oral once a day, 10 days, 2 weeks) worked out at 8.1 mm; in data set [5] (2 weeks) it was 3.6 mm. The “D: average diameter (mm) of tumor, 4 weeks” value in data set [4] (100 mg/Kg oral once a day, 10 days, 4 weeks) was 16.8 mm; in data set [5] (4 weeks), 14.1 mm. Also, the “D: average diameter (mm) of tumor, 6 weeks” value in data set [4] (100 mg/Kg oral once a day, 10 days, 6 weeks) was 23.1 mm; in data set [5] (6 weeks) it was 22.2 mm. Also, the “D: average diameter (mm) of tumor, 8 weeks” value is given as 27.4 mm in data set [4] (100 mg/Kg oral once a day, 10 days, 8 weeks) and 26.8 mm in data set [5] (8 weeks). In addition, the “D: average diameter (mm) of tumor, 10 weeks” value in data set [4] (100 mg/Kg oral once a day, 10 days, 10 weeks) is 25.5 mm; in data set [5] (10 weeks), 23.8 mm. Moreover, in data set [4] (100 mg/Kg oral, repeatedly), the “antitumor action (in words)” value is listed as “no substantial antitumor action was observed”. The “N: number of living mice, 0 weeks” value was 6 in data set [4] (100 mg/Kg oral, 0 weeks, group of 6) and 6 in data set [5] (0 weeks, group of 6). Also, the “N: number of living mice, 2 weeks” value in data set [4] (100 mg/Kg oral, 2 weeks, group of 6) was determined as 6; in data set [5] (2 weeks, group of 6), 6. The “N: number of living mice, 4 weeks” value in data set [4] (100 mg/Kg oral, 4 weeks, group of 6) is given as 6; in data set [5] (4 weeks, group of 6), 6. The “N: number of living mice, 6 weeks” value in data set [4] (100 mg/Kg oral, 6 weeks, group of 6) is given as 6; in data set [5] (6 weeks, group of 6), 6. Further, the “N: number of living mice, 8 weeks” value in data set [4] (100 mg/Kg oral, 8 weeks, group of 6) was found to be 6; in data set [5] (8 weeks, group of 6) it was 3. For the same compound, the “N: number of living mice, 10 weeks” value came to 5 in data set [4] (100 mg/Kg oral, 10 weeks, group of 6) and 2 in data set [5] (10 weeks, group of 6). Besides, in data set [5], the “antitumor activity (in words)” value is given as “no substantial antitumor activity”. For the same compound, in data set [6], the “estimated LD50 value” is 150 to 200 mg/kg.
Regarding `CCN(CC)C(=O)N1CCN(c2nc(-c3ccccc3)cs2)CC1` [drawing 8], the “Ratio of Increase of Ear Thickness (average value ± standard variation, %)” value in data set [1] is 37.5 ± 2.1%.
Still for that read-out and setting: the value for `CCN(CC)C(=O)N1CCN(c2nccs2)CC1` [drawing 9] was 36.6 ± 3.0%.
In the case of `CCN(CC)C(=O)N1CCN(c2nccs2)CC1` [drawing 13], the “Take-in Ratio (average value, %)” value in data set [3] worked out at 25.8%.
Regarding `CCN(CC)C(=O)N1CCN(c2nc(-c3ccccc3)cs2)CC1` [drawing 12], the “Take-in Ratio (average value, %)” value in data set [3] worked out at 21.0%.

The values are drawn from patent publication US4476128A, “2-Substituted thiazolyl-piperazine compounds, process for preparation thereof and utilizations thereof _” (Mitsuitoatsu Chemicals, Inc., priority 1980, dated 1984).
